According to patent publication US20060142239A1, “Potassium or sodium salt of (-)-2-(4-hydroxyphenyl)ethyl!-thio-3-'4-{4-'(methzlsulfonzl)oxy !phenoxy}phenyl!propanoic acid and their use in medicine” (priority 2003, published 2006):

How the values were obtained:
SC LS-174T tumours = test: Human LS-174T colon tumour xenografts in Nude mice, tumour growth delay; type: in vivo; details: ZD6126 200 mg/kg IP, 5-FU 75 mg/kg IV, CPT-11 25 mg/kg IV; for MEDIAN TIME TO REACH TUMOUR SIZE OF 2 CM^3: SC LS-174T xenografts in Nude mice, weekly x3 (Days 1, 8, 15), in combinations ZD6126 2 hours after the other agent; for T - C (DAYS), tumour growth delay: difference in median time to reach 2 cm^3, treatment vs vehicle control, weekly x3
Description: Human LS-174T Colon Tumour Xenografts in Nude Mice […] Mice were randomised into 6 groups of 15-18 mice per group. Group 1—control Group 2—received 3 weekly intraperitoneal (IP) injections of ZD6126 at 200 mg/kg on Days 1, 8 and 15 Group 3—received 3 weekly intravenous (IV) injections of 5-FU at 75 mg/kg on Days 1, 8 and 15 Group 4—received 3 weekly IV injections of CPT-11 alone at 25 mg/kg on Days 1, 8 and 15. Group 5—received 3 weekly IP injections of ZD6126 at 200 mg/kg on Days 1, 8 and 15 and 3 weekly IV injections of 5-FU at 75 mg/kg Days 1, 8 and 15. Group 6—received 3 weekly IP injections of ZD6126 at 200 mg/kg on Days 1, 8 and 15 and 3 weekly IV injections of CPT-11 at 25 mg/kg on Days 1, 8 and 15. In groups 5 and 6, when animals received both ZD6126 and CPT-11 or 5-FU on the same day, the ZD6126 was administered 2 hours after the CPT-11 or 5-FU. [table] For all animals, the tumour size was measured twice a week with calipers, and the tumour volume (mm^3) was estimated according to the formula: {[(Square root of Length×Width)×(Length×Width)]×0.5236}. The mice were sacrificed when tumours grew beyond 10% of bodyweight. Treatment efficacy was assessed in terms of the effects on the tumour volumes of treated mice relative to vehicle-treated mice and expressed as growth delay. Growth delay T-(C) was calculated as the difference in the median growth time of the treatment group (T) and the vehicle control group (C) to reach a tumor size of 2 cm^3.

tumour vasculature = details: reported in Proc. Am. Assoc. Cancer Res. 2000; 41: 329; cited from earlier work

## CCc1c2c(nc3ccc(OC(=O)N4CCC(N5CCCCC5)CC4)cc13)-c1cc3c(c(=O)n1C2)COC(=O)[C@]3(O)CC [CPT-11, irinotecan]
SC LS-174T tumours
  MEDIAN TIME TO REACH TUMOUR SIZE OF 2 CM^3: 17 days
  T - C (DAYS), tumour growth delay: 8 days

## COc1cc2c(c(OC)c1OC)-c1ccc(OP(=O)(O)O)cc1[C@@H](NC(C)=O)CC2 [ZD6126, (5S)-5-(acetylamino)-9,10,11-trimethoxy-6,7-dihydro-5H-dibenzo[a,c]cyclohepten-3-yl dihydrogen phosphate]
Tumour vasculature
  effect on tumour vasculature: selectively disrupts tumour vasculature leading to vessel occlusion and extensive tumour necrosis
SC LS-174T tumours
  MEDIAN TIME TO REACH TUMOUR SIZE OF 2 CM^3: 17 days
  T - C (DAYS), tumour growth delay: 8 days

## O=c1[nH]cc(F)c(=O)[nH]1 [5-FU, 5-fluorouracil]
SC LS-174T tumours
  MEDIAN TIME TO REACH TUMOUR SIZE OF 2 CM^3: 14 days
  T - C (DAYS), tumour growth delay: 5 days
